The text below walks through data of US8673910B2, “Proteasome inhibitors for selectively inducing apoptosis in cancer cells” (H. Lee Moffitt Cancer Center and Research Institute, priority 2008, dated 2014).

One may read the IC50 as the concentration needed to halve the response being measured. One may read the inhibition as the relative decrease from the control value, in per cent.

The structures appear in SMILES notation. Values joined by “and” are separate entries in the source; they are usually repeats but may differ in a detail not shown here. Identical values can stand only once. Like-named read-outs stand apart in the source and are kept apart here. Some results are limits rather than exact numbers.

Assay [1] addresses T1, CT-L activity of the proteasome in MCF-7 human breast cancer cells (Homo sapiens, UniProt P20618+P28074).
T1 construct: endogenous in cells; host or cells: MCF-7
Nature of the assay: Proteolytic activity in cell lysates of treated intact MCF-7 cells. The conditions noted are these: intact cells treated 16 h, CT-L measured in cell lysates; two determinations where two values. The class given is cell-based. Here is the method:
Human MCF-7 breast cancer cells were cultured in DMEM medium containing 10% fetal calf serum (FCS) and 100 units/ml of penicillin and 100 μg/ml of streptomycin. Cells were maintained at 37° C. in a humidified incubator in an atmosphere of 5% CO2. Cells were treated with different concentrations of PI-083, YG1-080, YG1-075, HL2-090-2, HL2-090-4, HL2-090-6, and HL2-090-9 or vehicle control (DMSO) for 16 h.
Intact cells were treated with compounds and lysates prepared as described above. Cell lysates (5 μg) was incubated with 20 μM Suc-Leu-Leu-Val-Tyr-AMC for the CT-L activity for 1 h at 37° C. in 100 μl of assay buffer (50 mM Tris-HCl, pH 7.6). After incubation, production of hydrolyzed 7-amido-4-methyl-coumarin (AMC) groups was measured using a WALLAC Victor^2 1420 Multilabel Counter with an excitation filter of 355 nm and an emission filter of 460 nm (Perkin Elmer Life Sciences, Turku, Finland).

The target of assay [2] is T2, tumor T-L activity (A549 tumors) (Homo sapiens, UniProt Q99436).
T2 construct: from tissue; host or cells: A549 human lung tumour xenografts grown in nude mice
Nature of the assay: Proteasome activity in A549 tumor lysates after in vivo treatment. Also on record: species or system nude mice. Conditions: mouse, ip; A549 tumors extracted 2 hours after last i.p. injection (1 mpk), vs DMSO-treated controls.
Description: (§2) To determine proteasome activity in whole cell extracts from cultured cells (5 μg) or tumor and liver tissue extracts (30 μg) from nude mice, the same assay was used except that the buffer was changed to 20 mM HEPES, 0.5 mM EDTA, pH 8.0.
(§3) Whole cell extracts were prepared as follows: Cells were harvested, washed with PBS twice, and homogenized in a lysis buffer (50 mM Tris-HCl, pH 8.0, 5 mM EDTA, 150 mM NaCl, 0.5% NP-40) for 30 min at 4° C. Cell extracts from tumors and livers of nude mice were prepared in 50 mM HEPES, 0.5 mM EDTA, pH 8.0. Cell lysates were centrifuged at 12,000 g for 15 min, and the supernatants were collected as whole cell extracts.
(§4) Nude mice (Charles River Laboratories, Wilmington, Mass.) were maintained and treated in accordance with the Institutional Animal Care and Use Committee procedures and guidelines. […] Exponentially growing MCF-7 and A549 cells were harvested via trypsinization, pelleted at 300 g for 5 minutes, resuspended in sterile PBS (Invitrogen) at 10^7 cells per 100 μl, and injected into each flank of mice. The tumor xenografts were monitored with an electronic caliper every other day for 16 days. Tumor volume was calculated using the formula V=W^2L, where width is the largest diameter and length is the smallest diameter. When the tumors reached ˜200 mm^3, the animals were randomized and treatment schedules were implemented. […]

The target of assay [3] is tumor PGPH activity (A549 tumors) (Homo sapiens, UniProt P28072). The assay is described as above.
Description: as §2, §3, §4
For assay [4], the system named is MCF-7 breast cancer xenografts. Briefly: Antitumor study of human tumor xenografts in nude mice (MCF-7). The class given is in vivo. Conditions: 1 mpk i.p. 2× weekly; for average tumor size of MCF-7 derived xenografts: start at about 200 mm^3. In general terms: In xenograft studies the graft and the host belong to different species.
Description: Nude mice (Charles River Laboratories, Wilmington, Mass.) were maintained and treated in accordance with the Institutional Animal Care and Use Committee procedures and guidelines. Seven days before inoculation with MCF-7 cells, the animals were fully anesthetized for subcutaneous implantation of estradiol pellets (0.25 mg per pellet, 60-day release; Innovative Research of America, Sarasota, Fla.) on the dorsal surface of mice. Exponentially growing MCF-7 and A549 cells were harvested via trypsinization, pelleted at 300 g for 5 minutes, resuspended in sterile PBS (Invitrogen) at 10^7 cells per 100 μl, and injected into each flank of mice. The tumor xenografts were monitored with an electronic caliper every other day for 16 days. Tumor volume was calculated using the formula V=W^2L, where width is the largest diameter and length is the smallest diameter. When the tumors reached ˜200 mm^3, the animals were randomized and treatment schedules were implemented. […] 2 hours after the last injections animals were sacrificed via CO2 inhalation, and then tumors and livers were harvested and snap frozen in liquid N2.
Assay [5] has as its system primary multiple myeloma cells isolated from patients' bone marrow. Nature of the assay: Viability of primary multiple myeloma cells (MTT assay). The class given is cell-based, human. Here is the method:
MM patients' bone marrow samples were collected from Liquid Tissue Bank facility. Freshly isolated bone marrow samples were fractionated by Ficoll-Paque (Pharmacia Biotech, Piscataway, N.J.) sedimentation. The mononuclear cellular layer was then resuspended in RPMI-1640 containing 10% heat-inactivated fetal bovine serum, 10 mM HEPES (pH 7.4), sodium pyruvate, L-glutamine, and 1% penicillin-streptomycin.
Cells were plated in 96-well plates in 100 μl medium and allowed to attach overnight. […] […] Media was then aspirated and DMSO was added. Cells were incubated for 10 min at room temperature while shaking, and the absorbance was determined at 540 nm using a μQuant spectrophotometric plate reader (Bio-TEK, Winooski, Vt.).
In general terms: Formazan colour is commonly taken as a measure of viable cells.

In assay [6] the target is T3, tumor CT-L activity (A549 tumors) (Homo sapiens, UniProt P20618+P28074).
T3 construct: from tissue; host or cells: A549 human lung tumour xenografts grown in nude mice
Nature of the assay: Proteasome activity in A549 tumor lysates after in vivo treatment. The conditions noted are these: mouse, ip; A549 tumors extracted 2 hours after last i.p. injection (1 mpk), vs DMSO-treated controls. Also on record: species or system nude mice.
Description: as §2, §3, §4

Assay [7] addresses T4, trypsin-like (T-L) activity of purified 20S rabbit proteasome (Oryctolagus cuniculus, UniProt G1SWK8).
T4 construct: purchased Boston Biochem
Nature of the assay: Proteolytic activity of purified 20S proteasome, fluorogenic substrate Bz-Val-Gly-Arg-AMC. The class given is biochemical. Conditions: Table 4: means of 3 experiments ± standard error, read-out: IC50 for T-L activity in vitro. The protocol:
In the high-throughput screen, the inventors used fluorogenic peptides as substrates to assay 3,229 compounds of the NCI Diversity, Natural Product, Challenge and Mechanistic Sets for inhibitory activity against the proteolytic activities of the purified 20S proteasome, resulting in the identification of PI-083. […] After incubation, production of hydrolyzed 7-amido-4-methyl-coumarin (AMC) groups was measured using a WALLAC Victor^2 1420 Multilabel Counter with an excitation filter of 355 nm and an emission filter of 460 nm (Perkin Elmer Life Sciences, Turku, Finland).

The subject of assay [8] is CT-L activity of rabbit 20S proteasome. Nature of the assay: Dialysis using purified rabbit 20S proteasome. The class given is biochemical. The conditions noted are these: compound 10 μM, 30 min pre-incubation at 37° C. The protocol: To measure the effect of dialysis on CT-L activity, compounds (10 μM) or vehicle (0.1% DMSO) were added to rabbit 20S proteasome (225 ng) (Boston Biochem) in proteasome assay buffer (50 mM Tris-HCl, pH 7.6) and incubated at 37° C. for 30 min. After 30 min of incubation, proteasome-compound mixtures were added to 10,000 MWCO Thermo Scientific Slide-A-Lyzer Dialysis Cassette (Rockford, Ill.) and dialyzed against proteasome assay buffer. Immediately (t=0) and 0.5 h, 1 h, 2 h, 4 h, and 18 h of dialysis at 4° C., samples were removed from the dialysis cassette and the CT-L 20S proteasome activity was determined. Proteasome activity was normalized against proteasome activity of DMSO control.

The test system of assay [9] is p27^Kip1 protein in A549 tumors. Nature of the assay: Western blot of p27Kip1 in A549 tumor lysates. Type of assay: in vivo. The conditions noted are these: A549-bearing nude mice. Here is the method: (§1) Cell lysates (50 μg) were separated by SDS-PAGE and transferred to a nitrocellulose membrane, probed with p27^Kip1 and β-actin antibodies, and signals were visualized by enhanced chemoluminescence (ECL, Amersham, Piscataway, N.J.) according to the manufacturer's protocol.

Assay [10] has as its system MCF-7/MCF-10A, T-80-Hras/T-80, C7-Kras/C7 cells. Nature of the assay: TUNEL assay, apoptosis in cancer and non-transformed cell pairs. The class given is cell-based, human. Conditions: 3 pairs of cell lines, 24 h. The protocol:
Terminal deoxynucleotidyl transferase-mediated nick-end labeling (TUNEL) was used to determine the extent of DNA strand breaks (Kazi et al., 2004). The assay was performed with the APO-Direct Kit following the manufacturer's instructions. In brief, the harvested cells were fixed in 1% paraformaldehyde for 45 minutes on ice, washed twice with PBS, and then fixed again in 70% ethanol at −20° C. overnight. The cells were then incubated in DNA labeling solution (containing terminal deoxynucleotidyl transferase (TdT) enzyme, fluorescence-conjugated dUTP and reaction buffer) for 60 minutes at 37° C. After rinsing the cells to remove the DNA labeling solution, the cells were incubated with the propidium iodide/RNase A solution, incubated for 30 minutes at room temperature in the dark, and analyzed by flow cytometry within 3 hours of staining.

In assay [11] the test system is p27^Kip1 levels in A549 lung cancer cells. Nature of the assay: Western blot of p27Kip1 in cultured A549 cells. Type of assay: cell-based, human. Conditions: 48 h treatment. The protocol:
as §1
(In general: A western blot detects proteins with antibodies after separation by electrophoresis.)

Setting [12] is: read-out: Viability 24 h (IC50 values), primary MM cells, 24 h, Table 5: one value per patient, mean over patients.

T4 sequence (G1SWK8 1-271): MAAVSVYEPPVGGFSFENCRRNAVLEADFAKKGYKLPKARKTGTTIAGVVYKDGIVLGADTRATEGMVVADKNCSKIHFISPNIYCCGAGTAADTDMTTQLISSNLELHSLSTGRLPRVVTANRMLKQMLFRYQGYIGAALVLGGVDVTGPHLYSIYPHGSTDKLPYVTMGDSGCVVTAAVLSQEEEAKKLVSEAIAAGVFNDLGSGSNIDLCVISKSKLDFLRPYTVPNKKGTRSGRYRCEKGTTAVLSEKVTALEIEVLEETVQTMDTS

For the compound `O=C1C(Cl)=C(Nc2ccc(S(=O)(=O)Nc3ccccn3)cc2)C(=O)c2ccccc21` [PI-083, 4-(3-chloro-1,4-dioxo-1,4-dihydronaphthalen-2-ylamino)-N-(pyridin-2-yl)benzenesulfonamide], the IC50 in assay [1] was 6200 nM and 5600 nM; in assay [5] (primary MM cells, 48 h, Table 5: one value per patient, b176: mean over patients, read-out: Viability 48 h (IC50 values)), 1790 nM and 2600 nM and 3600 nM and 900 nM and 1500 nM; in assay [5] (setting [12]) it was > 10000 nM and 2200 nM and 3400 nM and 1800 nM and 2000 nM; in [5] (read-out: Viability 72 h (IC50 values), primary MM cells, 72 h, Table 5: one value per patient, b176: mean over patients), 1600 nM and 2200 nM and 2600 nM and 1300 nM and 1800 nM and 350 nM. Further, the inhibition at 1 mg/kg in assay [2] was 12%; in assay [3] (A549, mouse, ip, read-out: inhibition of tumor PGPH activity) it was 34%; in assay [6] it was 43%. Besides, the “tumor growth inhibition, MCF-7 xenografts” value in assay [4] is 84%. Moreover, the “average tumor size of MCF-7 derived xenografts” value in assay [4] was “about 396±137 mm^3”.
With `CC(C)C[C@H](NC(=O)[C@H](Cc1ccccc1)NC(=O)c1cnccn1)B(O)O` [Bortezomib, reference compound], the half-maximal inhibitory concentration (IC50) in assay [7] is 7020 nM; in assay [5] (primary MM cells, 48 h, Table 5: one value per patient, b176: mean over patients, listed as bortezomib, read-out: Viability 48 h (IC50 values)) it was 140 ± 80 nM; in assay [5] (setting [12]), 190 nM and 280 nM; in assay [5] (read-out: Viability 72 h (IC50 values), primary MM cells, 72 h, Table 5: one value per patient, b176: mean over patients, listed as bortezomib), 46 ± 8 nM. Further, in [8], the “inhibition of CT-L activity of the 20S proteasome in the absence of dialysis” value was found to be 99%. Further, the inhibition at 1 mg/kg in assay [2] was 0%; in assay [6], 70%. Further, the “inhibition of tumor PGPH activity” value in assay [3] (A549 tumors extracted 2 hours after last i.p. injection (1 mpk), vs DMSO-treated controls) worked out at 68%. Besides, the “treated tumors with dramatic upregulation of p27^Kip1 protein” value in assay [9] is recorded as 4 out of 4. In [4], the “antitumor effect in MCF-7 xenografts, in words” value was “appeared to be ineffective in the nude mouse model”. Besides, the “average tumor size of MCF-7 derived xenografts” value in assay [4] was 1,448±145 mm^3. Further, in [10], the “apoptosis (TUNEL)” value was “induced little apoptosis in any of the cell lines”. Moreover, the “p27^Kip1 levels in cultured A549 lung cancer cells” value in assay [11] is “marked increase”.
